Reference: patent US20220387602A1, “BIFUNCTIONAL DEGRADERS AND THEIR METHODS OF USE” (NOVARTIS AG, priority 2019, published 2022)

Tests used:
CRBN = CRBN (Homo sapiens, UniProt Q96SW2); experiment: CRBN displacement assay Format 1 (fluorescence polarization, BodipyFL-lenalidomide probe Compound HH); type: binding
Method in brief: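 Compound and CRBN protein (nominally 100 nM) were preincubated for 45 min at room temperature before a 5 nM BodipyFL-lenalidomide probe started competition, with 0.9% DMSO final. Polarization was measured 45 min later, exciting at 485 nm and reading 520 nm. AC50 came from a logistic fit with Hill coefficient.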

ABL2 = target: T1, ABL2 (Homo sapiens, UniProt P42684); experiment: GFP-ABL2 protein abundance flow cytometry assay in HEK293A; type: cell-based; conditions: for ABL2 Amax: % protein remaining at the concentration of maximum degradation; for DC50: HEK293A GFP-ABL2 sensor cells, 24 h
T1 construct: expressed in transfected cells; host or cells: HEK293A (Invitrogen R70507), lentiviral transduction
Method: (§1) Degradation of BTK, CSK, ABL2, EPHA4 and YES1 was measured in HEK293A cells (Invitrogen R70507) expressing either BTK-GFP and RFP, CSK-GFP and mCherry, GFP-ABL2 and mCherry, EPHA4-GFP and mCherry, or YES1-GFP and mCherry from a stably integrated bicistronic BTK-GFP-iresRFP, CSK-GFP-CHYSEL-mCherry, GFP-ABL2-CHYSEL-mCherry, EPHA4-GFP-CHYSEL-mCherry, or YES1-GFP-CHYSEL-mCherry construct, respectively. Reduction of the GFP signal measured by flow cytometry served as readout for BTK, CSK, ABL2, EPHA4 and YES1 degradation after degrader treatment.
(§2) 293A BTK-GFP-Ires-RFP, CSK-GFP-CHYSEL-mCherry, GFP-ABL2-CHYSEL-mCherry, EPHA4-GFP-CHYSEL-mCherry, or YES1-GFP-CHYSEL-mCherry sensor cells were generated by lentiviral vector transduction using the pLenti6-BTK-GFP-Ires-RFP, pLenti6-mCherryCHYSEL-EGFP-ABL2, pLenti6-CSK-GFP-CHYSEL-mCherry, pLenti6-EPHA4-GFP-CHYSEL-mCherry or pLenti6-YES1-GFP-CHYSEL-mCherry sensor construct described before. Lentiviral particles were produced in HEK293FT cells (Invitrogen R70007) by co-transfection of 500 ng pLenti6-BTK-GFP-Ires-RFP or pLenti6-IKZF3-GFP-Ires-RFP, 500 ng delta8.71 and 200 ng pVSVG diluted in 100 μL OptiMEM serum free medium (Invitrogen #11058-021) that was mixed after 5 min preincubation with 3 μL of Lipofectamine2000 (Invitrogen #11668-019) in 97 μL OptiMEM serum free medium. The mix was incubated for another 20 min at RT and then added on 1 mL of a freshly prepared suspension of HEK293FT cells in a well of a 6-well plate (concentration 1.2×10^6 cells/mL). 1 day after transfection, the medium was replaced with 1.5 mL of complete growth medium (DMEM high Glucose+10% FCS+1% L-Glutamine+1% NEAA+1% NaPyr.). 48 h post transfection supernatant containing viral transducing particles was collected and frozen at −80° C.
(§3) 2 days before transduction with viral particles 1×10^5 HEK293A cells (Invitrogen R70507) were seeded in 2 mL growth medium in a well of a 6-well plate. Infection was performed with 90 μL of collected supernatant containing viral transducing particles in 1 mL medium including 8 µg/mL polybrene. 24 h post infection, stably transfected cells were selected with blasticidin at a concentration of 8 μg/mL referred to as stable HEK293A sensor cells.
(§4) Stable HEK293A sensor cells were maintained in complete growth medium (DMEM high Glucose+10% FCS+1% L-Glutamine+1% NEAA+1% NaPyr.) with passaging performed twice per week. […] GFP and RFP are read in the channels called FITC and PE, respectively.
(§5) Concentration response curves plotting relative reduction of the GFP signal (measured by flow cytometry) versus 10 compound concentrations (starting concentration 10 μM, 3 fold dilution steps) of the compounds allowed generation of DC50 values.

EPHA4 = target: T2, EPHA4 (Homo sapiens, UniProt P54764); experiment: EPHA4-GFP protein abundance flow cytometry assay in HEK293A; type: cell-based; conditions: for EPHA4 Amax: % protein remaining at the concentration of maximum degradation; for DC50: HEK293A EPHA4-GFP sensor cells, 24 h
T2 construct: EGFP (after a Leu that replaces the STOP codon); expressed in transfected cells; host or cells: HEK293A (Invitrogen R70507), lentiviral transduction
Method: as §1, §2, §3, §4, §5

YES1 = target: T3, YES1 (Homo sapiens, UniProt P07947); experiment: YES1-GFP protein abundance flow cytometry assay in HEK293A; type: cell-based; conditions: for YES1 Amax: % protein remaining at the concentration of maximum degradation; for DC50: HEK293A YES1-GFP sensor cells, 24 h
T3 construct: EGFP (after a Leu that replaces the STOP codon); expressed in transfected cells; host or cells: HEK293A (Invitrogen R70507), lentiviral transduction
Method: as §1, §2, §3, §4, §5

T2 sequence (P54764 20-986, species assumed): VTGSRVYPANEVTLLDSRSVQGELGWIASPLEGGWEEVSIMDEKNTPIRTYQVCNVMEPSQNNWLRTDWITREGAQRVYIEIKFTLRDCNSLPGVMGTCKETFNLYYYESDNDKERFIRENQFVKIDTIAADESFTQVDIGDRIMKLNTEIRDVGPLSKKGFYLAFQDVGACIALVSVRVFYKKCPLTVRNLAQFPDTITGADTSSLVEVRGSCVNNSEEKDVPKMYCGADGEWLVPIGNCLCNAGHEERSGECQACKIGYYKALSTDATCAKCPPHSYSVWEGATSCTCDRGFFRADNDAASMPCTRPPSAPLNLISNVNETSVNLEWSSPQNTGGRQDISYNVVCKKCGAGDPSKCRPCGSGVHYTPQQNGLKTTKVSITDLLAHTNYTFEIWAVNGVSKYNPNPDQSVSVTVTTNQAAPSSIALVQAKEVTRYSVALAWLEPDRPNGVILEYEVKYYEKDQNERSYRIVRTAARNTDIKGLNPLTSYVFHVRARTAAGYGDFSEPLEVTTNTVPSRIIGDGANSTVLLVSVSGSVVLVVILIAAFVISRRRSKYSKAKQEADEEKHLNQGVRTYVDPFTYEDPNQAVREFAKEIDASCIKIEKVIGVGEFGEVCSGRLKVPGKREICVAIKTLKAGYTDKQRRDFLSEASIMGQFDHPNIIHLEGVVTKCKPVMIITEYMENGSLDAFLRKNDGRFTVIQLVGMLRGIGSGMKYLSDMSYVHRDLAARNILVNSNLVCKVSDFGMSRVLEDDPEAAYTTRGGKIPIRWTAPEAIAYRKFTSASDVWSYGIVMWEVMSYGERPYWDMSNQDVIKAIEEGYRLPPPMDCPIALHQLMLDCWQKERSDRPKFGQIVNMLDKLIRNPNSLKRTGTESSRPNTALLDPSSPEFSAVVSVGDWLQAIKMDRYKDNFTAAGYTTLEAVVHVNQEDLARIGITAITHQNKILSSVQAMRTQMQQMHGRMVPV
T1 sequence (P42684 whole entry, looked up): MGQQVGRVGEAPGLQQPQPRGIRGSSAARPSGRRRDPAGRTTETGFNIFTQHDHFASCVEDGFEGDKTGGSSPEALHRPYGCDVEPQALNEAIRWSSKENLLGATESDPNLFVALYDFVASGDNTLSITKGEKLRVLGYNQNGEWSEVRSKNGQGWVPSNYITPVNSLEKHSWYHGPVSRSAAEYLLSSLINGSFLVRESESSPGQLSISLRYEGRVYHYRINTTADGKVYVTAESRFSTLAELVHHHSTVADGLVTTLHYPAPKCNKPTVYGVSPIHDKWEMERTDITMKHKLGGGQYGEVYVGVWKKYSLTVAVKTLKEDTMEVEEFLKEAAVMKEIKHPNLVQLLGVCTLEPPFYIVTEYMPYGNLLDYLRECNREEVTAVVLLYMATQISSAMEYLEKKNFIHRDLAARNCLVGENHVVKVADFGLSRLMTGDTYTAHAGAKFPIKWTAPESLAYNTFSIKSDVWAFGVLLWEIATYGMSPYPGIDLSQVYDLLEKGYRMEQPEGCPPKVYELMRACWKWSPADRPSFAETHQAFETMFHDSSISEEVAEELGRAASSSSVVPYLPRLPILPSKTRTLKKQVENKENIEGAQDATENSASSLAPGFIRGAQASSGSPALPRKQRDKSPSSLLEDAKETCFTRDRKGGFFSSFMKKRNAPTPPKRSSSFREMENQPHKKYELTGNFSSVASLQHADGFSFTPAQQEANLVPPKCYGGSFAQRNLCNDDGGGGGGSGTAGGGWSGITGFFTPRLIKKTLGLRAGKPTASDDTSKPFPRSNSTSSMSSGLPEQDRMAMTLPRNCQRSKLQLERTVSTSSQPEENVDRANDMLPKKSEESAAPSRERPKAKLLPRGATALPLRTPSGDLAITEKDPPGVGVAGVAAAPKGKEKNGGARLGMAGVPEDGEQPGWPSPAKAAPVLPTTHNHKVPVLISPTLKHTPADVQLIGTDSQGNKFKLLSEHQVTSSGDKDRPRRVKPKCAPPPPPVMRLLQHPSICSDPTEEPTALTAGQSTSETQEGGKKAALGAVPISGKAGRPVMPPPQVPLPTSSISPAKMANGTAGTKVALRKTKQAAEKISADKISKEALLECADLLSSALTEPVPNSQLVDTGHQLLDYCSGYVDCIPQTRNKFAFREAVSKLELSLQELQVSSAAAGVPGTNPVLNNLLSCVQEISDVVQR
T3 sequence (P07947 whole entry, looked up): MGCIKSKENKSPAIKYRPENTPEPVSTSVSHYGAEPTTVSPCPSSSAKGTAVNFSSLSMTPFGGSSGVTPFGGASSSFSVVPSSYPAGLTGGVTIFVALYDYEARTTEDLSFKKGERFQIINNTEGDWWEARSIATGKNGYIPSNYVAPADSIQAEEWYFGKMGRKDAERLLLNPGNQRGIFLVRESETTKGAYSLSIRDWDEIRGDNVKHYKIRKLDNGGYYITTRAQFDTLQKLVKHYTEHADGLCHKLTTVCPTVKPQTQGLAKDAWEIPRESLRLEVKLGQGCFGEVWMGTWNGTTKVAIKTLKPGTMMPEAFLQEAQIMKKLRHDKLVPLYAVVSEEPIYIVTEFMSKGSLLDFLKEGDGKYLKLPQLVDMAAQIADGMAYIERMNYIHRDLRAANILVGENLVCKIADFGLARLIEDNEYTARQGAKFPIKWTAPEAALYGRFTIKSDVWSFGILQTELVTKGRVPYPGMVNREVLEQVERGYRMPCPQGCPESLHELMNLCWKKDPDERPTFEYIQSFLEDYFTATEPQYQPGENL
Sequence of CRBN (Q96SW2 whole entry): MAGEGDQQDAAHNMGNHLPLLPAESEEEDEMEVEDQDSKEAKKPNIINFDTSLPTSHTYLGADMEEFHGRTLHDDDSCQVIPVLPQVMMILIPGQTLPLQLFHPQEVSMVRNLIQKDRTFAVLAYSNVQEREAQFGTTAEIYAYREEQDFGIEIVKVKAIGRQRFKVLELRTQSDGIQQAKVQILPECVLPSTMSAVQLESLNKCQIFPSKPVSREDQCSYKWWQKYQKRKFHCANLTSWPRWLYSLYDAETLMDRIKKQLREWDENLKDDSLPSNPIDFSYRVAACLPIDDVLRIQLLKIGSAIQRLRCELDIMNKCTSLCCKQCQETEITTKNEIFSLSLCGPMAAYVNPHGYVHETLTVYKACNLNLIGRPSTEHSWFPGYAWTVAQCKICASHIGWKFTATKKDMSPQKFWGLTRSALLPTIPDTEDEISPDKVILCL

Row | SMILES | AC50 (CRBN) | ABL2 Amax (ABL2) | DC50 (ABL2) | EPHA4 Amax (EPHA4) | DC50 (EPHA4) | YES1 Amax (YES1) | DC50 (YES1)
1 | COc1ccc(C(=O)N2CCC3(CCN(C(=O)CN4CCN(c5cc(Nc6ncc(C(=O)Nc7c(C)cccc7Cl)s6)nc(C)n5)CC4)CC3)CC2)cc1N1CCC(=O)NC1=O [compound 07, N-(2-chloro-6-methylphenyl)-2-((6-(4-(2-(9-(3-(2,4-dioxotetrahydropyrimidin-1(2H)-yl)-4-methoxybenzoyl)-3,9-diazaspiro[5.5]undecan-3-yl)-2-oxoethyl)piperazin-1-yl)-2-methylpyrimidin-4-yl)amino)thiazole-5-carboxamide] | 496 nM | 27% | 63 nM | 9% | 83 nM | 11% | 124 nM
2 | COc1ccc(C(=O)N2CCC3(CCN(C(=O)CCCCCCCN4CCN(c5cc(Nc6ncc(C(=O)Nc7c(C)cccc7Cl)s6)nc(C)n5)CC4)CC3)CC2)cc1N1CCC(=O)NC1=O [compound 06, N-(2-chloro-6-methylphenyl)-2-((6-(4-(8-(9-(3-(2,4-dioxotetrahydropyrimidin-1(2H)-yl)-4-methoxybenzoyl)-3,9-diazaspiro[5.5]undecan-3-yl)-8-oxooctyl)piperazin-1-yl)-2-methylpyrimidin-4-yl)amino)thiazole-5-carboxamide] | 162 nM | 22% | 2 nM | 9% | 4 nM | 4% | 9 nM
